One assay has as its target T1, Rtt109-Vps75 complex (Saccharomyces cerevisiae, UniProt Q07794).
T1 construct: using two full-length physiologically relevant protein complexes; made in house
T1 sequence (Q07794 1-436): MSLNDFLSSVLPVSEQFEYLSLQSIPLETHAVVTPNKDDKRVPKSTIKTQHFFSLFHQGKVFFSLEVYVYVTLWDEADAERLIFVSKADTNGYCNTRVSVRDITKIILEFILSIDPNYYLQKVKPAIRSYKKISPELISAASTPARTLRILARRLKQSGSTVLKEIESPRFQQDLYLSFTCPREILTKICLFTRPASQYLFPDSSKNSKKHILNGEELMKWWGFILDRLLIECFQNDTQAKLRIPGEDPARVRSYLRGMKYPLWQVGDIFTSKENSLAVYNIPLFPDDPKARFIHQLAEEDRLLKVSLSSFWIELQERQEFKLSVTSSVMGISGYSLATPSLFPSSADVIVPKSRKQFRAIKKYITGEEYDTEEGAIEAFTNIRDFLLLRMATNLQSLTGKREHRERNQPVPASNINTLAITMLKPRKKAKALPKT
T1 sequence (P53853 1-264 partner): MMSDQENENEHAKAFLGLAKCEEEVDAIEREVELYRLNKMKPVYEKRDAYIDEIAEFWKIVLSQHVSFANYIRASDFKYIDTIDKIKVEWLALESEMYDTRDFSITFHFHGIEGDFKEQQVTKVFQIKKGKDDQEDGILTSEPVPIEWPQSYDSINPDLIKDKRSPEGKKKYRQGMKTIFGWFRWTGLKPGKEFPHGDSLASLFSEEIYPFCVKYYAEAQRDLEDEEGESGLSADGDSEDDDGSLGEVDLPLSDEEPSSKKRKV
Put plainly: CPM-based fluorometric Rtt109-Vps75 HTS / dose-response assay. The assay is classed as biochemical, S. cerevisiae. On the procedure: (§1) Compounds selected for dose-response analyses were tested in duplicate at eight compound concentrations, ranging from 40 nM to 125 µM final compound concentrations. Plate controls, dispensing steps and general assay procedures were unchanged from the aforementioned HTS procedures. Slot blots were performed using standard techniques with a Bio-Rad Bio-Dot SF microfiltration apparatus. Membranes were imaged with a LI-COR Odyssey and analyzed using Image Studio (LI-COR Biosciences). For the slot blot experiments, the assay plates included an additional plate control consisting of the Rtt109-Vps75 and Asf1-dH3-H4 complexes and no acetyl-CoA. Dose-response and slot blot experiments were replicated at least three times by independent experiments.

A further assay relates to Rtt109. The arrangement: method as in PMID 18568037. The note with it: ref [11]; cited from earlier work.
Assay [1] deals with T2, Rtt109-catalyzed histone acetylation (H3K56ac, H3K27ac, H3K9ac) (Saccharomyces cerevisiae, UniProt Q07794).
T2 construct: using two full-length physiologically relevant protein complexes; made in house
T2 sequence (Q07794 1-436): T1 sequence (Q07794 1-436)
T2 sequence (P53853 1-264 partner): T1 sequence (P53853 1-264 partner)
Put plainly: Orthogonal antibody-based slot blot assay of histone acetylation. The class given is biochemical, S. cerevisiae. The conditions noted are these: reaction aliquots. On the procedure: as §1
This method utilizes modification-specific antibodies to detect changes in the actual histone acetylation, rather than the CoA by-product. […] Equal protein content was verified by Ponceau S staining (Figure 5B).

A further assay deals with PCAF. The note with it: ref [69], [70]; cited from earlier work.
For another assay, the system named is p300. The note with it: ref [69], [70]; cited from earlier work.
Another assay concerns β-lactamase. The conditions noted are these: 10 µM.

Procedure for β-lactamase: Selected compounds were also de-risked for aggregation behavior using published procedures [55], except that the published assay buffer was again swapped for the HTS buffer. Rotterlin and lidocaine were used as a positive and negative compound controls, respectively [56]. Compounds were tested at 10 µM final concentrations in either the presence or absence of 0.01% Triton X-100.

With `O=C(O)C1=CC(=C(c2ccc(O)c(C(=O)O)c2)c2ccc(O)c(C(=O)O)c2)C=CC1=O` [ATA, aurintricarboxylic acid], the “signal reduction in HTS compound control wells” value on Rtt109-Vps75 complex (10 µM final concentration) is reported as 50%.

Consider `CC(=O)N[C@@H](CCCCNC(=O)CSCCNC(=O)CCNC(=O)[C@H](O)C(C)(C)COP(=O)(O)OP(=O)(O)OC[C@H]1O[C@@H](n2cnc3c(N)ncnc32)[C@H](O)[C@@H]1OP(=O)(O)O)C(N)=O` [Lys-CoA], for which the “activity versus Rtt109” value with Rtt109 is “have not shown activity”.

Regarding `OC(Cn1cncn1)(Cn1cncn1)c1ccc(F)cc1F` [fluconazole], at Rtt109-Vps75 complex (dose-response, negative compound control), the “activity against Rtt109-catalyzed histone acetylation in the CPM-based assay” value is “but not fluconazole, showed modest activity”. For the same molecule, the “histone acetylation by slot blot” value in assay [1] is reported as “did not show any measureable decrease”.

Turning to `C=C(C)[C@@H](CC=C(C)C)C[C@@]12C[C@@H](CC=C(C)C)C(C)(C)[C@@](CC=C(C)C)(C(=O)C(C(=O)c3ccc(O)c(O)c3)=C1O)C2=O` [garcinol], in the assay with PCAF, the IC50 was […]. The IC50 with p300 is 7 µM. Besides, in assay [1] (modification-specific antibody), the “H3K9ac by slot blot” value is listed as “dose-dependent decreases”, the “H3K27ac by slot blot” value is “dose-dependent decreases” and the “H3K56ac by slot blot” value was “dose-dependent decreases”. Also, the “inhibition of β-lactamase activity, detergent present” value in the assay with β-lactamase (0.01% Triton X-100) was “no such inhibition was observed”. The “inhibition of β-lactamase activity, detergent-free” value in the assay with β-lactamase (absence of detergent) was “only modest inhibition”.

A word on the IC50: it is the concentration at which inhibition is half-maximal.
